Test results published in patent US8809001B2, “High throughput assays for inhibitors and activators of PAQR receptors” (University of Florida Research Foundation, Inc., priority 2007, dated 2014).
“And” between values parts separate entries of the source, which are not always exact repeats. Equal entries are not always repeated.

Experiments:
mPRα = biological target: T1, mPRα (Homo sapiens, UniProt Q86WK9); assay: cell-based
T1 construct: Full length and truncated mPRγ and mPRα were expressed in wild type cells grown in 2% galactose from the pGREG536 vector; expressed in transfected cells; host or cells: Saccharomyces cerevisiae (BY4742 wild type; also gpa mutants), GAL1-driven plasmids (TPI1 promoter in pJK90)
T1 sequence (Q86WK9 1-346): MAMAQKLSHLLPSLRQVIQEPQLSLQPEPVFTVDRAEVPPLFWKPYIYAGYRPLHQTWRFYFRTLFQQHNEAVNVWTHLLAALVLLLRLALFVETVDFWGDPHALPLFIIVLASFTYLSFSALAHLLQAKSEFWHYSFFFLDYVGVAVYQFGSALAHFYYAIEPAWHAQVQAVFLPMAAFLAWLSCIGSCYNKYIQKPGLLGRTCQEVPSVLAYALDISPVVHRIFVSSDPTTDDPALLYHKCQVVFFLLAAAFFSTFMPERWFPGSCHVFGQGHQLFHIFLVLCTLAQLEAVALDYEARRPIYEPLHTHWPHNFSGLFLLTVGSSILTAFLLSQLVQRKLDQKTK
Description: Plasmids and primers. Human PAQRs were cloned into various vectors by PCR from commercially/publically available cDNAs. […] The OST4 open reading frame in pJK90 was replaced with the PAQR6 and mPRα open reading frames by gap repair. Primers for all cloning reactions are listed herein. Proteins expressed in pYES260 have an N-terminal 6×-histidine tag followed by a TEV protease cleavage site. Proteins expressed in pGREG536 have an N-terminal 7×-HA tag. Proteins expressed in the pRS316 vector are untagged. The pYES260, pRS316 and pGREG536 vectors allow for galactose-inducible expression via the GAL1 promoter. […] A pRS316-based plasmid containing the STE2 gene under the control of the GAL1 promoter (Feng et al., 2000) was kindly provided by Dr. Nicholas G. Davis (Wayne State University).
Assays and growth conditions. Strains were maintained using standard protocol and grown in synthetic defined (SD) media with the appropriate amino acids to match the auxotrophies of the individual strains. […] In brief, overnights of cells grown in SD-glucose media were re-inoculated into iron-deficient LIM to induce the expression of FET3. […] All ligands were added to the growth medium upon re-inoculation into LIM. For experiments in which steroids were added as ligands, steroids were added from ethanol stocks and “untreated” controls are actually treated with an equal volume of ethanol to control for vehicle effects. […] All experiments were performed at least three times and a representative experiment is shown. EC50 values were obtained using the web-based BioDataFit software using sigmoidal curve-fitting. (web site changbioscience.com/stat/ec50.html)

[1] = system: receptors in Classes I and III; assay: FET3-lacZ response of the human PAQR panel to 10 μM progesterone: Classes I and III; assay type: cell-based
Description: Plasmids and primers. Human PAQRs were cloned into various vectors by PCR from commercially/publically available cDNAs. PAQRs were cloned into the pYES260 (Melcher, 2000), pRS316 (Liu et al., 1992) or pGREG536 (Jansen et al., 2005) expression vectors using gap repair. The pJK90 plasmid containing a Dual Topology Reporter (DTR)-tagged OST4 gene driven by the constitutive TPI1 promoter was kindly provided by Dr. Gunnar von Heijne (Stockholm University) (Kim et al., 2003). The OST4 open reading frame in pJK90 was replaced with the PAQR6 and mPRα open reading frames by gap repair. Primers for all cloning reactions are listed herein. Proteins expressed in pYES260 have an N-terminal 6×-histidine tag followed by a TEV protease cleavage site. Proteins expressed in pGREG536 have an N-terminal 7×-HA tag. Proteins expressed in the pRS316 vector are untagged. The pYES260, pRS316 and pGREG536 vectors allow for galactose-inducible expression via the GAL1 promoter. […] The FET3-lacZ plasmid was previously described (Kupchak et al., 2007). […]
Assays and growth conditions. […] Cells were allowed to grow to mid-log phase at which time the activity of the FET3 gene was monitored using a FET3-lacZ promoter-reporter construct. lacZ activities are presented as a percentage of activity seen in untreated cells expressing the appropriate empty expression vector control. […]

For CC(=O)[C@H]1CC[C@H]2[C@@H]3CCC4=CC(=O)CC[C@]4(C)[C@H]3CC[C@]12C [Progesterone, progesterone], the EC50 (mPRα; EC50, mPRα column of Table 4, ligand alone) was 2.2 nM, the EC50 (mPRα; EC50, mPRα, Table 3, iron deficient LIM, 0.05% galactose) was 2.3 nM and 1 to 3 nM and the “agonist effect on receptors in Classes I and III” value [1] was “ineffective”.
